Assay type in all cases: in vivo
The subject of assay [1] is downy brome (Bromus tectorum L; BROTE). Put plainly: Postemergence herbicidal activity of mixtures in cereal crops (greenhouse, visual injury). In short, it runs like this: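 Greenhouse-grown plants at 2nd–3rd true leaf stage (14 h photoperiod, ~18/17 °C) sprayed postemergence at 187 L/ha with compound A or B (methyl ester or TEA/K salt) and a second cereal herbicide, alone and in two- or three-way mixtures. Visual injury (0–100%) scored versus solvent-blank controls after 20–22 days; expected mixture activity calculated by Colby's equation.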

Assay [2] deals with Fimbristylis miliacea (L.) VAHL (FIMMI). The experiment in a line: Postemergence herbicidal mixtures for weed control in direct seeded rice (greenhouse, visual % injury). As to conditions: FIMMI.
Assay [3] deals with Cyperus iria L. (CYPIR). The description is as above. The following applies: for % Injury Ob: CYPIR.

As to `COC(=O)c1nc(-c2ccc(Cl)c(OC)c2F)cc(N)c1Cl` [Compound A Methyl, 4-amino-3-chloro-6-(4-chloro-2-fluoro-3-methoxyphenyl)pyridine-2-carboxylic acid methyl ester], the “BROTE Ob” value in assay [1] (35 g/ha, Table 8) was found to be 0.0%; in assay [1] (35 g/ha, Table 9), 0%; in assay [1] (35 g/ha, Table 10), 0%; in assay [1] (70 g/ha, Table 8), 0.0%; in assay [1] (70 g/ha, Table 9) it was 0%; in assay [1] (70 g/ha, Table 10), 0%. The “BROTE Ob” value was 13% in assay [1] (140 g/ha, Table 8); 13% in assay [1] (140 g/ha, Table 9); 13% in assay [1] (140 g/ha, Table 10). For the same compound, the results for the “% Injury Ob” value in assay [2] (4.38 g/ha alone), in assay [2] (8.75 g/ha alone) and in assay [3] (35 g/ha alone) were 20%, 40% and 50%, respectively. The “% Injury CYPIR Ob” value in assay [3] (alone 4.38 g/ha) is reported as 70%; in assay [3] (alone 35 g/ha), 50%.

Take `O=C(O)c1c(Cl)ccc2cc(Cl)cnc12` [Quinclorac]: the “% Injury Ob” value in assay [2] (140 g/ha alone) and in assay [3] (140 g/ha alone) was 0% throughout.

Regarding `COc1c(Cl)ccc(-c2cc(N)c(Cl)c(C(=O)O)n2)c1F` [Compound A TEA, 4-amino-3-chloro-6-(4-chloro-2-fluoro-3-methoxyphenyl)pyridine-2-carboxylic acid], the “BROTE Ob” value in assay [1] (35 g/ha, Table 15) is on record as 0%; in assay [1] (35 g/ha, Table 16) it was 0%; in assay [1] (35 g/ha, Table 18) it was 0%; in assay [1] (70 g/ha, Table 15) it was 0%; in assay [1] (70 g/ha, Table 16), 0%; in assay [1] (70 g/ha, Table 18) it was 3%. Besides, the “BROTE Ob” value in assay [1] (140 g/ha, Table 15) was 0%; in assay [1] (140 g/ha, Table 16) it was 0%; in assay [1] (140 g/ha, Table 18), 3%.

Values taken from patent US10556865B2, “Synergistic herbicidal composition containing certain pyridine or pyrimidine carboxylic acids and certain cereal and rice herbicides” (Dow AgroSciences, LLC, priority 2007, dated 2020).
